Assay results taken from patent US11926580B2, “Hydropersulfide precursors” (THE JOHNS HOPKINS UNIVERSITY, priority 2018, dated 2024).
Values joined by “and” are separate entries in the source; they are usually repeats but may differ in a detail not shown here. Equal values may be shown once.

How the values were obtained:
[1] = Kinetics of RSSH generation by 1H NMR with NEM trapping; type: physicochemical; settings: pH 7.4 buffer with 20% MeOD
[2] = Kinetics of RSSH generation by 1H NMR with NEM trapping; type: physicochemical; settings: 10% D2O, 37° C.; for half-life at 1 mM: phosphate buffer, NEM, pH 7.4 buffer, read-out: half-life of precursor; for t1//2 (mm) / Hydropersulfide Yield (%) (RSS-NEM adduct): precursor 1 mM, NEM 20 mM, pH 7.4 phosphate buffer; for Hydropersulfide Yield (%) (RSS-NEM adduct): based upon % precursor consumed
Description: FIGS. 3a and 3b provide graphs of (a) Stacked ^1H NMR spectra showing the decomposition of precursor 4d (1 mM) with NEM (20 mM) in 10% D2O, phosphate buffer (PB), pH 7.4 at 37° C. to produce RSS-NEM adduct 5a; Precursor 4d was introduced to a solution of NEM in PB at t=0 min and following equilibration and shimming, the first 1H NMR spectrum was obtained after 6 min.; and (b) The kinetics of decomposition of 4d (circles represent the —CH3 protons (Ha) of the precursor) and formation of 5a (squares represent the diasterotopic protons (Hb) of the succinimide ring of the two product diastereomers).
Next, ^1H NMR spectroscopy was used to monitor the kinetics of RSSH generation from 4d by trapping with NEM in 10% D2O, pH 7.4 buffer containing DMSO as an internal standard at 37° C. An increase in the peak intensity attributed to one of the diasterotopic protons of the succinimide ring of the two product diastereomers (Hb, δ2.99-2.91 ppm) was observed (FIG. 3a). The other diasterotopic proton (Hc, δ3.30-3.21 ppm) overlaps with N-ethylmaleamic acid (NEMA), a product derived from NEM hydrolysis. Similarly, the intensity of two methyl group protons of precursor 4d (δ1.44 and 1.41 ppm) decreased as four methyl group protons of the two diastereomers of 5a (Ha, δ1.40, 1.37 ppm and 1.40, 1.34 ppm) increased, supporting the clean conversion of 4d to 5a. The ^1H NMR peak assignments for 5a are consistent with the RSS-NEM adduct formed during S-methoxycarbonyl penicillamine disulfide (MCPD) decomposition (Scheme 1, eq. 3) in the presence of NEM.
All starting materials were of reagent grade and used without further purification. N-acetyl-D-penicillamine, N-ethylmaleimide, N-ethylmaleamic acid, and phenylcyanamide were purchased from Sigma-Aldrich and used without further purification. Thiourea and N-substituted thioureas were purchased from Alfa Aesar and Oakwood Chemicals. Deuterated solvents (Cambridge Isotope Laboratories) were used for NMR spectroscopic analyses. NMR spectra were obtained on a 400 MHz FT-NMR spectrometer. All chemical shifts are reported in parts per million (ppm) relative to residual CHCl3 (7.26 ppm for ^1H, 77.2 ppm for ^13C), residual H2O (4.79 ppm for ^1H), residual DMSO (2.50 ppm for ^1H, 39.5 for ^13C), or residual MeOH (3.31 ppm for ^1H, 49.2 ppm for ^13C). The kinetics of RSSH generation were measured using a Varian Inova 800 MHz spectrometer. UPLC-MS analysis was carried out with a Waters Acquity/Xevo-G2 UPLC-MS system equipped with an ACQUITY UPLC BEH C18 column (2.1 mm×50 mm, 1.7 μm). The mass signals for products of hydropersulfide trapping with NEM were obtained via deconvolution using MassLynx 4.1 software. The pH measurements were performed using a Fisher Scientific Accumet AB15 pH-meter. Analytical thin layer chromatography (TLC) was performed on Sigma-Aldrich silica gel on TLC A1 foils with fluorescent indicator F254 plates. Visualization was accomplished with UV light (254 nm) or staining with KMnO4. Flash column chromatography was performed using SiliaFlash P60 (230-400 mesh) silica gel. Melting points were recorded using MEL-TEMP® capillary melting point apparatus and are uncorrected.

[3] = UPLC-MS analysis of RSSH trapping with N-ethylmaleimide; type: physicochemical; settings: for RSSH generation (RSS-NEM adduct formation): NEM trap
Description: FIGS. 2a and 2b provide graphs of (a) UPLC-MS chromatograms of RSSH generation from 4d (200 μM) in the presence of NEM (4 mM) incubated in pH 7.4 ammonium bicarbonate (100 mM) with DTPA (100 μM) at 37° C. A peak at 3.7 min corresponding to N-ethylmaleamic acid (NEMA), derived from NEM hydrolysis, was observed under these conditions (see SI); (b) MS spectrum (ESI+ mode) of the product eluting at 5.06 min corresponding to 5a with m/z 349.0885 (expected m/z 349.0886).
FIG. 5 provides a graph of UPLC-MS chromatograms of RSSH generation from compound 1 (1 mM) in the presence of NEM (5 mM) incubated in pH 7.4 ammonium bicarbonate buffer containing DTPA (100 μM) for 30 min at 37° C. The asterisk indicates the methyl ester analogue of dialkyl trisulfide 2, which was also formed due to the presence of minor amount of methyl ester analogue of 1. A peak at 3.7 min corresponding to N-ethylmaleamic acid (NEMA), derived from NEM hydrolysis, was observed under these conditions.
RSSH trapping in the presence of N-ethylmaleimide (NEM) was carried out with a Waters Acquity/Xevo-G2 UPLC-MS system equipped with an ACQUITY UPLC BEH C18 column (2.1 mm×50 mm, 1.7 μm). Typically, RSSH precursor (1 eq) was incubated with NEM (5 to 20 eq) in freshly prepared pH 7 4 ammonium bicarbonate buffer (100 mM) containing DTPA (100 μM) at 37° C. An aliquot of the reaction mixture (300 μL) was withdrawn at specified time points, quenched with 0.25% formic acid (300 μL), and filtered through a 0.22 μm filter. The samples were then loaded into vials in an autosampler maintained at 4° C. and analyzed using UPLC-MS as follows: Mobile phase: 0-1 min 90% water+0% ACN+10% formic acid (0.1%); 1-7.5 min gradient up to 10% water+80% ACN+10% formic acid (0.1%); 7.5-8.4 min 10% water+80% ACN+10% formic acid (0.1%); 8.4-8.5 min gradient up to 90% water+0% ACN+10% formic acid (0.1%), 8.5-10 min 90% water+0% ACN+10% formic acid (0.1%). Flow rate=0.3 mL min^−1. The mass signals for products of RSSH trapping with NEM were obtained via deconvolution using MassLynx 4.1 software.
To a solution of NEM (5 mM) in pH 7 4 ammonium bicarbonate (100 mM) with DTPA (100 μM) in a 20-mL scintillation vial, hydropersulfide precursor 1 (1 mM, total reaction volume 3 mL) was added. The resulting mixture was incubated at 37° C. for 30 min. An aliquot of 300 μL reaction mixture was withdrawn, quenched with 300 μL of formic acid (0.25%) and analyzed using UPLC-MS.

[4] = test system: cardiomyocyte H9c2 cells; assay: Cytotoxicity / cell viability assay with Cell Counting Kit-8; type: cell-based; settings: up to 200 μM, 24 h, CCK-8
Description: (§1) FIGS. 6a and 6b provide graphs of (a) the cell viability of cardiomyocyte H9c2 cells following incubation of the RSSH precursor 4d (50 μM) and phenylcynamide (200 μM) for 24 h; and (b) the cytoprotective effects of the RSSH precursor 4d observed following pretreatment of H9c2 cells with either 4d (50 μM) or phenylcynamide (200 μM) for 2 h, followed by hydrogen peroxide (200 μM) treatment for 2 h. Quantification of cell viability was carried out using Cell Counting Kit-8 (CCK-8). Results are expressed as the mean±SEM (n=6).
The cytotoxicity and impact on cell viability of the hydropersulfide (RSSH) precursor 4d have been examined using the cardiomyocyte H9C2 cell line and Cell Counting Kit-8 (CCK-8). A cell viability assay reveled that 4d was not cytotoxic at 50 μM ([…]).

[5] = test system: cardiomyocyte H9c2 cells; assay: Cytoprotection against hydrogen peroxide-induced cytotoxicity; type: cell-based; settings: pretreatment 2 h (4d 50 μM; phenyl cyanamide 200 μM), then H2O2 200 μM 2 h, CCK-8
Description: as §1
Since hydropersulfides are reported to mitigate oxidative stress, the ability of RSSH precursor 4d to protect cardiomyocyte H9c2 cells from cytotoxicity induced by hydrogen peroxide (H2O2) was tested.

| melting point | half-life at 1 mM [2] | t1//2 (mm) [2] | Structure (SMILES) | Hydropersulfide Yield (%) (RSS-NEM adduct) [2] | RSSH generation (RSS-NEM adduct formation) ([3]; pH 7.4 buffer, 37° C., UPLC-MS) | also measured |
| --- | --- | --- | --- | --- | --- | --- |
| 151 to 153 °C |  |  | CC(=O)NC(C(=O)O)C(C)(C)SSC(=N)Nc1ccc(C(F)(F)F)cc1.Cl (centres unmarked) [Precursor 4h, ((1-acetamido-1-carboxy-2-methylpropan-2-yl)disulfaneyl)((4-(trifluoromethyl)phenyl)amino)methaniminium chloride] |  |  | Hydropersulfide Yield (%) (RSS-NEM adduct) ([1]; NEM, 37° C.): 95% and 95 ± 2^d %; t1//2 (mm) ([1]; NEM, 37° C.): 6.8 ± 0.2 min; half-life ([1]; pH 7.4, read-out: half-life of precursor): 6.8 min |
| 143 to 145 °C | 9.3 min | 9.3 ± 0.6 min | CC(=O)NC(C(=O)O)C(C)(C)SSC(=N)Nc1ccc(Cl)cc1.Cl (centres unmarked) [Precursor 4g, ((1-acetamido-1-carboxy-2-methylpropan-2-yl)disulfaneyl)((4-chlorophenyl)amino) methaniminium chloride] | 91% and 91 ± 1% |  |  |
| 190 to 192 °C |  |  | COC(=O)C(NC(C)=O)C(C)(C)SSC(=N)N.Cl (centres unmarked) [Precursor 4c, ((3-acetamido-4-methoxy-2-methyl-4-oxobutan-2-yl)disulfaneyl)(amino)methaniminium chloride] |  |  | RSS-NEM adduct 5b yield ([3]; decomposition in the presence of NEM, UPLC-MS): less than 50% |
| 152 to 154 °C | 17.3 min | 173 ± 0.4 min | CC(=O)NC(C(=O)O)C(C)(C)SSC(=N)Nc1ccccc1Cl.Cl (centres unmarked) [Precursor 4f, ((1-acetamido-1-carboxy-2-methylpropan-2-yl)disulfaneyl)((2-chlorophenyl)amino) methaniminium chloride] | 95% and 95 ± 2% |  |  |
| 154 to 156 °C |  |  | CC(=O)NC(C(=O)O)C(C)(C)SSC(=N)N.Cl (centres unmarked) [Precursor 4a, ((1-acetamido-1-carboxy-2-methylpropan-2-yl)disulfaneyl)(amino)methaniminium chloride] |  | formation of RSS-NEM 5a |  |
| 70 to 72 °C |  |  | CC(=O)NC(CSSC(=N)N)C(=O)O.Cl (centres unmarked) [Precursor 1, ((2-acetamido-2-carboxyethyl)disulfaneyl)(amino)methaniminium chloride] |  | no evidence of persulfide-NEM adduct formation | disappearance of precursor ([3]; 1 mM with NEM 5 mM, pH 7.4 buffer, 37° C., 30 min): complete disappearance |
|  | 17.3 min |  | CC(C)(C)SSC(=N)Nc1ccccc1.Cl [Precursor 9, (t-butyldisulfaneyl)(phenylamino)methaniminium chloride] | 97% |  |  |
| 153 to 155 °C |  |  | CNC(=N)SSC(C)(C)C(NC(C)=O)C(=O)O.Cl (centres unmarked) [Precursor 4b, ((1-acetamido-1-carboxy-2-methylpropan-2-yl)disulfaneyl)(methylamino) methaniminium chloride] |  | reduced compared with that from 4a |  |
| 142 to 144 °C | 5 min | 5.0 ± 0.5 min | COc1ccc(NC(=N)SSC(C)(C)C(NC(C)=O)C(=O)O)cc1.Cl (centres unmarked) [Precursor 4e, ((1-acetamido-1-carboxy-2-methylpropan-2-yl)disulfaneyl)((4-methoxyphenyl)amino) methaniminium chloride] | 75% and 75 ± 2% |  |  |
|  |  |  | N#CNc1ccccc1 [phenyl cyanamide, reference compound] |  |  | tolerability (cell viability) [4]: well tolerated; cytoprotection from H2O2-induced cytotoxicity [5]: did not protect |
